Laboratory results taken from ChEMBL document CHEMBL5247655, “Simplified Derivatives of Tetrandrine as Potent and Specific P-gp Inhibitors to Reverse Multidrug Resistance in Cancer Chemotherapy” (J Med Chem, 2023).
Converted amounts (≈) assume the structure as drawn.

Tests used:
[1] = test system: ECa-109 cell line; assay: Reversal of VCR -resistance in human Eca-109 cells assessed as cell viability at 5 uM incubated for 48 hrs by CCK-8 method (reference value: 6830.0+/-537.0 nM); assay type: functional, cell-based; conditions: ECa-109, 48 h
[2] = test system: ECa-109 cell line; assay: Induction of apoptosis in vincristine resistant human Eca-109 cells assessed as necrotic cells at 5 uM incubated for 24 hrs by AnnexinV-FITC/PI staining based flow cytometric analysis (reference value: 0.25%); assay type: functional
[3] = test system: ECa-109 cell line; assay: Induction of apoptosis in vincristine resistant human Eca-109 cells assessed as early apoptotic cells at 5 uM incubated for 24 hrs in presence of vincristine by AnnexinV-FITC/PI staining based flow cytometric analysis (reference value: 4.43%); assay type: functional
[4] = test system: ECa-109 cell line; assay: Induction of apoptosis in vincristine resistant human Eca-109 cells assessed as late apoptotic cells at 5 uM incubated for 24 hrs in presence of vincristine by AnnexinV-FITC/PI staining based flow cytometric analysis (reference value: 6.01%); assay type: functional
[5] = test system: ECa-109 cell line; assay: Reversal of vincristine-resistance in human Eca-109 cells assessed as fold reversal by measuring cell viability incubated for 48 hrs by CCK-8 method relative to vincristine alone; assay type: functional
[6] = test system: ECa-109 cell line; assay: Induction of apoptosis in vincristine resistant human Eca-109 cells assessed as early apoptotic cells at 5 uM incubated for 24 hrs by AnnexinV-FITC/PI staining based flow cytometric analysis (reference value: 2.30%); assay type: functional
[7] = test system: ECa-109 cell line; assay: Induction of apoptosis in vincristine resistant human Eca-109 cells assessed as viable cells at 5 uM incubated for 24 hrs in presence of vincristine by AnnexinV-FITC/PI staining based flow cytometric analysis (reference value: 89.2%); assay type: functional; conditions: read-out: Activity
[8] = test system: ECa-109 cell line; assay: Induction of apoptosis in vincristine resistant human Eca-109 cells assessed as necrotic cells at 5 uM incubated for 24 hrs in presence of vincristine by AnnexinV-FITC/PI staining based flow cytometric analysis (reference value: 0.35%); assay type: functional
[9] = test system: ECa-109 cell line; assay: Reversal of vincristine-resistance in human Eca-109 cells assessed as fold reversal by measuring cell viability at 5 uM incubated for 48 hrs by CCK-8 method relative to vincristine alone; assay type: functional
[10] = test system: ECa-109 cell line; assay: Induction of apoptosis in vincristine resistant human Eca-109 cells assessed as viable cells at 5 uM incubated for 24 hrs by AnnexinV-FITC/PI staining based flow cytometric analysis (reference value: 90.3%); assay type: functional; conditions: read-out: Activity
[11] = test system: ECa-109 cell line; assay: Induction of apoptosis in vincristine resistant human Eca-109 cells assessed as late apoptotic cells at 5 uM incubated for 24 hrs by AnnexinV-FITC/PI staining based flow cytometric analysis (reference value: 7.19%); assay type: functional
[12] = test system: ECa-109 cell line; assay: Cytotoxicity against vincristine resistant human Eca-109 cells incubated for 48 hrs by CCK-8 method relative to control; assay type: functional; design: concentration or dose not given beside the values
[13] = Solubility of the compound in water at 25 degree C by shake flask method based UV-spectrophotometric method; assay type: physicochemical
[14] = Toxicity in nude mouse assessed as change in body weight at 0.2 mg/kg administered every 2 days for 21 days; assay type: organism-based; conditions: in vivo, 48 h, time 2 day
[15] = biological target: ATP-dependent translocase ABCB1 (Homo sapiens, UniProt P08183); assay: Binding affinity to P-gp in vincristine resistant human Eca-109 cells assessed as stabilization of protein at 67 degree C at 100 uM incubated for 30 mins by thermal shift assay; assay type: cell-based; conditions: eca-109, 0.5 h
Chain of ATP-dependent translocase ABCB1 (P08183 whole entry): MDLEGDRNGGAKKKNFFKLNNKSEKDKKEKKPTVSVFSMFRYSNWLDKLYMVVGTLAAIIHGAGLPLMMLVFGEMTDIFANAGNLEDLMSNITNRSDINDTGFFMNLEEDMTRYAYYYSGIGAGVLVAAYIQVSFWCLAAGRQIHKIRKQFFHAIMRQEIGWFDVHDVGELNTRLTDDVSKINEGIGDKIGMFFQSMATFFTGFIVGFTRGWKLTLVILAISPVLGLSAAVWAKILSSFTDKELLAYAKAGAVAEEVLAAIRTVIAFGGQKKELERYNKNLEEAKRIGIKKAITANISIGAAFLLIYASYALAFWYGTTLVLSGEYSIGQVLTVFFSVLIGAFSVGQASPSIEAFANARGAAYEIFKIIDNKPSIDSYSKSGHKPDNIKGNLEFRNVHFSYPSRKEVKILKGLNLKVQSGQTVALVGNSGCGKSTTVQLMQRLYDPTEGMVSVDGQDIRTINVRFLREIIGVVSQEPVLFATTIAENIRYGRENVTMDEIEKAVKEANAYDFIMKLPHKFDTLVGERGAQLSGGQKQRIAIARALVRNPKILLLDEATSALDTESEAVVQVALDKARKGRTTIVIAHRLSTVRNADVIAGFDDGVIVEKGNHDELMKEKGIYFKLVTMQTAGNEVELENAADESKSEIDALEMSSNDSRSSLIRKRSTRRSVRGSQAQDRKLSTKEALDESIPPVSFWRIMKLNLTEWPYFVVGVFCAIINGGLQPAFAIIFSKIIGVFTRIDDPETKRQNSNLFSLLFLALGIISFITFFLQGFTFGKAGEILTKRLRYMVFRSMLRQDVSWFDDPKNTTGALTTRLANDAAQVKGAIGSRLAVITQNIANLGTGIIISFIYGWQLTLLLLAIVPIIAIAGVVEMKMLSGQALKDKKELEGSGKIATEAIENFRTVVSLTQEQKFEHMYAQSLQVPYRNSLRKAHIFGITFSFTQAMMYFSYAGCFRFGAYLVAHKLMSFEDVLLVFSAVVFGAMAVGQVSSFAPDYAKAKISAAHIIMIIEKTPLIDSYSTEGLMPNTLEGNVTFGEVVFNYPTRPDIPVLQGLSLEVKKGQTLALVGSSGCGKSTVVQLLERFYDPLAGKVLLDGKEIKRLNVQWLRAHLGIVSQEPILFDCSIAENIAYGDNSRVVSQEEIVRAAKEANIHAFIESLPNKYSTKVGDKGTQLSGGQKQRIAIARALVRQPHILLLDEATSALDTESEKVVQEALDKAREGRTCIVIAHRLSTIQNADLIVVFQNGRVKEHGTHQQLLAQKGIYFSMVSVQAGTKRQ

Structure (SMILES)	fold change (FC) [5]	Activity [12]	further results
COc1ccc(CCN(C)CCCC(C#N)(c2ccc(OC)c(OC)c2)C(C)C)cc1OC (configuration not stated) [VERAPAMIL]	10.1	95.6%	IC50 [1]: 679 nM; Activity [2]: 0.12%; Activity [3]: 20.3%; Activity [4]: 10.5%; Activity [6]: 2.65%; viability at 5 µM [7]: 68.8%; Activity [8]: 0.48%; fold change (FC) [9]: 10.1; viability at 5 µM [10]: 89.3%; Activity [11]: 7.92%
COc1ccc(CC2c3cc(OC)c(OC)cc3CCN2C)cc1OC (configuration not stated) [LAUDANOSINE]	12.9	90.7%	–
COc1cc(CC2c3cc(OC)c(OC)cc3CCN2C)ccc1O (configuration not stated)	2.8	90.3%	–
COc1cc2c(cc1OC)C(Cc1ccccc1Cl)N(C)CC2 (configuration not stated)	13.4	96.3%	–
COc1ccc(C[C@@H]2c3cc(Oc4cc(C[C@@H]5c6cc(OC)c(OC)cc6CCN5C)ccc4O)c(OC)cc3CCN2C)cc1 [NEFERINE]	–	–	IC50 [1]: 3790 nM; fold change (FC) [9]: 1.8
COc1ccc2cc1Oc1ccc(cc1)C[C@H]1c3cc(c(OC)cc3CCN1C)Oc1c(OC)c(OC)cc3c1[C@H](C2)N(C)CC3 [FANCHININ]	232.6	87.1%	IC50 [1]: 29.4 nM; solubility thermodynamic [13]: 14.6 µg/mL (≈ 23.4 µM); Activity [2]: 0.15%; Activity [3]: 18.8%; Activity [4]: 13.1%; Activity [6]: 3.68%; viability at 5 µM [7]: 67.5%; Activity [8]: 0.54%; fold change (FC) [9]: 232.6; viability at 5 µM [10]: 88.2%; Activity [11]: 8.01%
CCC1c2cc(OC)c(OC)cc2CCN1C (configuration not stated)	4.2	90.6%	–
COc1cc2c(cc1OC)C(Cc1ccc(OC)c(OCc3ccccc3)c1)N(Cc1ccccc1)CC2 (configuration not stated)	42.7	68.8%	–
COc1cc(Br)c(CC2c3cc(OC)c(OC)cc3CCN2C)cc1OC (configuration not stated)	16	93.4%	–
COc1cc2c(cc1OC)C(C)N(C)CC2 (configuration not stated)	2.6	91.1%	–
COc1cc2c(cc1OC)C(Cc1ccc(O)cc1)N(C)CC2 (configuration not stated)	2.8	98.1%	–
COc1cc2c(cc1OC)C(Cc1ccc(I)cc1)N(C)CC2 (configuration not stated)	2.9	99%	–
COc1cc2c(cc1OC)C(Cc1ccc3c(c1)OCO3)N(C)CC2 (configuration not stated)	5	90.8%	–
COc1cc2c(cc1OC)C(Cc1cccc(Cl)c1)N(C)CC2 (configuration not stated)	23.6	89%	–
COc1cc2c(cc1OC)C(Cc1ccc(OCCC3CCCCC3)c(OC)c1)N(C)CC2 (configuration not stated)	166.4	54.3%	–
COc1cc2c(cc1OC)C(CC(F)(F)F)N(C)CC2 (configuration not stated)	3	88.2%	–
COc1cc2c(cc1OC)C(Cc1ccc(C#N)cc1)N(C)CC2 (configuration not stated)	3.6	99.8%	–
COc1cc2c(cc1OC)CN(C)CC2	7.7	90.9%	–
COc1cc2c(cc1OC)C(Cc1ccc(OC)c(OCCC3CCCCC3)c1)N(C)CC2 (configuration not stated)	143.3	81%	–
CC[C@]1(O)C[C@H]2CN(CCc3c([nH]c4ccccc34)[C@@](C(=O)OC)(c3cc4c(cc3OC)N(C=O)[C@H]3[C@@](O)(C(=O)OC)[C@H](OC(C)=O)[C@]5(CC)C=CCN6CC[C@]43[C@@H]65)C2)C1 [VINCRISTINE]	–	–	Activity [14]: Non-Toxic
COc1cc2c(cc1OC)CN(CCc1ccc(NC(=O)c3cc(OC)c(OC)cc3NC(=O)c3cnc4ccccc4c3)cc1)CC2 [TARIQUIDAR]	187.4	85.9%	Activity [15]: Active
CN1CCc2cc(Br)ccc2C1=O	2	88.6%	–
COc1cc2c(cc1OC)C(Cc1ccc(OC)c(OCCC(C)C)c1)N(C)CC2 (configuration not stated)	205.7	87.1%	–
